This note sets out measurements from ChEMBL document CHEMBL3779853, “Target β-catenin/CD44/Nanog axis in colon cancer cells by certain N'-(2-oxoindolin-3-ylidene)-2-(benzyloxy)benzohydrazides” (Bioorg Med Chem Lett, 2016).

Calls of active or inactive are those of the source. The rule behind the calls is not given here.

The term IC50 denotes the concentration that gives 50% inhibition.

Assay [1] has as its system LoVo. Description: Cytotoxicity against high CD44 expressing human LoVo cells after 48 hrs by WST-1 assay. It is filed as functional, cell-based. In general terms: Formazan colour is commonly taken as a measure of viable cells.
Another assay has as its system HT-29. Put plainly: Cytotoxicity against low CD44 expressing human HT-29 cells after 48 hrs by WST-1 assay. It is filed as functional, cell-based.
A short description of assay [2]: Cell cycle arrest in low CD44 expressing human […] cells assessed as accumulation at G2 phase at 5 to 10 uM. It is filed as functional, cell-based.
Assay [3] in a line: Cell cycle arrest in low CD44 expressing human […] cells assessed as accumulation at M phase at 5 to 10 uM. It is filed as functional, cell-based.
Assay [4] has as its system LoVo. Description: Downregulation of Oct-4 expression in human LoVo cells at 10 uM after 48 hrs by RT-PCR analysis. It is filed as functional, cell-based.
Assay [5] can be described thus: Cell cycle arrest in high CD44 expressing human […] cells assessed as accumulation at G2 phase at 5 to 10 uM. It is filed as functional, cell-based.
A short description of assay [6]: Cell cycle arrest in low CD44 expressing human […] cells assessed as accumulation at S phase at 5 to 10 uM. It is filed as functional, cell-based.
Assay [7] is described as follows: Cell cycle arrest in high CD44 expressing human […] cells assessed as accumulation at M phase at 5 to 10 uM. It is filed as functional, cell-based.
The nature of assay [8]: Inhibition of Wnt/beta catenin pathway (unknown origin) in human LoVo cells transfected with TCF/LEF reporter plasmid assessed as GFP expression at 10 uM after 48 hrs by flow cytometric analysis (reference value: 3.7%). It is filed as cell-based. Also on record: scale not given: the % may be the effect or the level left.
For assay [9], the system named is LoVo. Put plainly: Downregulation of Sox2 expression in human LoVo cells at 10 uM after 48 hrs by RT-PCR analysis. It is filed as functional, cell-based.
The nature of assay [10]: Inhibition of Wnt/beta catenin pathway (unknown origin) in human LoVo cells transfected with TCF/LEF reporter plasmid assessed as GFP expression at 5 uM after 48 hrs by flow cytometric analysis (reference value: 3.7%). Details: scale not given: the % may be the effect or the level left. It is filed as cell-based. For orientation: Flow cytometry measures light scatter and fluorescence of single cells or particles in a stream.

Assay [11] in a line: Cell cycle arrest in high CD44 expressing human […] cells assessed as accumulation at S phase at 5 to 10 uM. It is filed as functional, cell-based.
Assay [12] can be described thus: Inhibition of Wnt/beta catenin pathway assessed as downregulation of CD44-mediated Nanog expression in human LoVo cells at 2.5 to 10 uM after 48 hrs by RT-PCR analysis. It is filed as cell-based.
Assay [13] in a line: Inhibition of Wnt/beta catenin pathway (unknown origin) in human LoVo cells transfected with TCF/LEF reporter plasmid assessed as GFP expression at 2.5 uM after 48 hrs by flow cytometric analysis (reference value: 3.7%). It is filed as cell-based. Details: scale not given: the % may be the effect or the level left.
For another assay, the target named is T1, TCF4-CTNNB1 complex (Homo sapiens, UniProt P35222+Q9NQB0).
T1 sequence (P35222 whole entry): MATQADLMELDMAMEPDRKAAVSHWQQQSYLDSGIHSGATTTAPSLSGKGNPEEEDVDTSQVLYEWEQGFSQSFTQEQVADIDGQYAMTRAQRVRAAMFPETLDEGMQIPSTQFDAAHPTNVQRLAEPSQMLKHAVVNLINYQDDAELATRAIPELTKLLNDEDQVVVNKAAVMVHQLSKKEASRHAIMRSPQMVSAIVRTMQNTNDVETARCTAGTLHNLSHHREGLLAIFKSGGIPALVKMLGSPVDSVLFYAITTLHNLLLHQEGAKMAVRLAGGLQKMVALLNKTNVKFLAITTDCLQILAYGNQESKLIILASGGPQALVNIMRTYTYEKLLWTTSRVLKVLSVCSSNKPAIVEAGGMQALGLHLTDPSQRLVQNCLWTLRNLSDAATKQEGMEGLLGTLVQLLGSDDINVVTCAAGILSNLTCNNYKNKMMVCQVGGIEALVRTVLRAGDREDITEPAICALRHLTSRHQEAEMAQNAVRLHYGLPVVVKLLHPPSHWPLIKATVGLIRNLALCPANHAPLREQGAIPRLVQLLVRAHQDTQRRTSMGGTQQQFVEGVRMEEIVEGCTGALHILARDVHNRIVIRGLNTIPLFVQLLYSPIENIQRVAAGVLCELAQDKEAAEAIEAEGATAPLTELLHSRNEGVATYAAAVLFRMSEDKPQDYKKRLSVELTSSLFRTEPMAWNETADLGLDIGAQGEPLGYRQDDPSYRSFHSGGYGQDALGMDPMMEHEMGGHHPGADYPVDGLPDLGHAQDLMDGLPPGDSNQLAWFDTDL
T1 sequence (P15884 whole entry): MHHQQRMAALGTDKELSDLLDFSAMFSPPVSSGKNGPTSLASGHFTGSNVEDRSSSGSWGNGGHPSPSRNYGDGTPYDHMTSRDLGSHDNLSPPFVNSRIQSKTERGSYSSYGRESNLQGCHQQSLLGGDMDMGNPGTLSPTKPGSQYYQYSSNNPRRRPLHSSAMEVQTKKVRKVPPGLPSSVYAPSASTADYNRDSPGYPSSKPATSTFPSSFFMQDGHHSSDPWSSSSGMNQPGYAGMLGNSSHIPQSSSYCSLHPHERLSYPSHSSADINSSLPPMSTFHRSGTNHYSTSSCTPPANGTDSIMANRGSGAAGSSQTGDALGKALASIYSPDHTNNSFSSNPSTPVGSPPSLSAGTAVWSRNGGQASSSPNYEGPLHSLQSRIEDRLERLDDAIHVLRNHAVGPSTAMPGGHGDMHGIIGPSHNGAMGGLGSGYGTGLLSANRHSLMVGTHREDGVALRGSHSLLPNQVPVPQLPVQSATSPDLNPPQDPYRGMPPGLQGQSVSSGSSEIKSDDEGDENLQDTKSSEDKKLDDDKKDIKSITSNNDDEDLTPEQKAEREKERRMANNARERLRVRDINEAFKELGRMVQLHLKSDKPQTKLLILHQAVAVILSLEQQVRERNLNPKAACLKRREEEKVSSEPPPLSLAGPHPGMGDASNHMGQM
Put plainly: Inhibition of human GST tagged Tcf4/beta catenin interaction after 2 hrs using fluorescent AP Attophos substrate by ELISA analysis. It is filed as protein-complex assay.

Where [14] appears, read: Homo sapiens, HT-29, 48 h, read-out: IC50.

On to `O=C(N/N=C1\C(=O)N(CN2CCOCC2)c2ccccc21)c1ccccc1OCc1ccccc1`, for which the values for the IC50 in the assay with LoVo [1] and in the assay on HT-29 (ht-29) were 16.3 µM and “Not Active”, respectively.

With `CN(C)CN1C(=O)/C(=N\NC(=O)c2ccccc2OCc2ccccc2)c2ccccc21`, the values for the IC50 with LoVo [1] and in the assay with HT-29 (setting [14]) were 12.9 µM and 48.8 µM, respectively.

Turning to `CN(Cc1ccccc1)CN1C(=O)/C(=N\NC(=O)c2ccccc2OCc2ccccc2)c2ccccc21`, the outcome (in [2]; in assay [3]; with LoVo [4]; in assay [6]; with LoVo [9]) was inactive. The figures for the IC50 in the assay on LoVo [1] and with HT-29 (ht-29) were 24.9 µM and “Not Active”, respectively. In addition, the outcome in [5], in assay [7] and in [11] was Active. For the same compound, the Activity in assay [8] was 1.7%; in assay [10], 2%; in assay [12] it was “Dose-dependent effect”; in assay [13], 2.2%.

For `CCCC(=O)c1cc2c(c(O)c1C)C(=O)C(=O)c1c(O)cccc1-2`, the half-inhibitory concentration (IC50) against TCF4-CTNNB1 complex is 2.4 µM.

At TCF4-CTNNB1 complex, `COc1c(CC(C)OC(=O)c2c(C)cc(O)cc2O)c2c3c(CC(C)OC(=O)c4c(C)cc(O)cc4O)c(OC)c(=O)c4c(O)cc(OC)c(c5c(OC)cc(O)c(c1=O)c52)c43` (centres undefined) displayed an IC50 of 4.1 µM.

As for `CN(Cc1ccccc1)CN1C(=O)/C(=N\NC(=O)c2ccccc2OCc2ccc(Cl)cc2)c2ccccc21`, the results for the IC50 with LoVo [1] and in the assay with HT-29 (ht-29) were 17.2 µM and “Not Active”, respectively.

On to `CCCN(CCC)CN1C(=O)/C(=N\NC(=O)c2ccccc2OCc2ccccc2)c2ccccc21`, for which the values for the IC50 in the assay on LoVo [1] and in the assay on HT-29 (setting [14]) were 19.8 µM and 95.5 µM, respectively.

For the compound `CCN(CC)CN1C(=O)/C(=N\NC(=O)c2ccccc2OCc2ccccc2)c2ccccc21`, the figures for the IC50 with LoVo [1] and with HT-29 (setting [14]) were 14.8 µM and 84.8 µM, respectively.

Regarding `CN(CCO)CN1C(=O)/C(=N\NC(=O)c2ccccc2OCc2ccccc2)c2ccccc21`, the figures for the IC50 with LoVo [1] and in the assay with HT-29 (ht-29) were 22.4 µM and “Not Active”, respectively.

With `CCCCN(CCCC)CN1C(=O)/C(=N\NC(=O)c2ccccc2OCc2ccccc2)c2ccccc21`, the IC50 in the assay on LoVo [1] turned out to be 27.2 µM; in the assay on HT-29 (setting [14]) it was 203 µM.

For the compound `O=C(N/N=C1\C(=O)N(CN2CCCCC2)c2ccccc21)c1ccccc1OCc1ccccc1`, the IC50 in the assay on LoVo [1] was 22.4 µM; in the assay on HT-29 (ht-29), “Not Active”.

For the compound `COC(=O)c1c(C)cc2c(c1O)[C@@]1(O)C(=O)c3cc4c(c(O)c3C(=O)[C@]1(OC)[C@H](O)C2)C(=O)C=C(NC1O[C@H](C)[C@@H](OC)[C@H](O)[C@@H]1OC)C4=O` (some centres undefined), 0.64 µM corresponded to half-maximal inhibition on TCF4-CTNNB1 complex (IC50).

The compound `COc1c(CC(C)OC(=O)Oc2ccc(O)cc2)c2c3c(CC(C)OC(=O)c4ccccc4)c(OC)c(=O)c4c(O)cc(OC)c(c5c(OC)cc(O)c(c1=O)c52)c43` (centres undefined) showed an IC50 against TCF4-CTNNB1 complex of 3.2 µM.
